The assay has as its target Acetylcholinesterase (AChE) (Electrophorus electricus, UniProt O42275). In words: Ellman colorimetric enzyme inhibition assay (commercial enzyme). Format: biochemical.

Consider one compound from publication PMC7603158, “Attenuation of Spatial Memory in 5xFAD Mice by Halting Cholinesterases, Oxidative Stress and Neuroinflammation Using a Cyclopentanone Derivative” (Pharmaceuticals, 2020).

Each structure is given as a SMILES string. pIC50: −log10 of the molar value.

Acetylcholinesterase (AChE), sequence (O42275 24-633): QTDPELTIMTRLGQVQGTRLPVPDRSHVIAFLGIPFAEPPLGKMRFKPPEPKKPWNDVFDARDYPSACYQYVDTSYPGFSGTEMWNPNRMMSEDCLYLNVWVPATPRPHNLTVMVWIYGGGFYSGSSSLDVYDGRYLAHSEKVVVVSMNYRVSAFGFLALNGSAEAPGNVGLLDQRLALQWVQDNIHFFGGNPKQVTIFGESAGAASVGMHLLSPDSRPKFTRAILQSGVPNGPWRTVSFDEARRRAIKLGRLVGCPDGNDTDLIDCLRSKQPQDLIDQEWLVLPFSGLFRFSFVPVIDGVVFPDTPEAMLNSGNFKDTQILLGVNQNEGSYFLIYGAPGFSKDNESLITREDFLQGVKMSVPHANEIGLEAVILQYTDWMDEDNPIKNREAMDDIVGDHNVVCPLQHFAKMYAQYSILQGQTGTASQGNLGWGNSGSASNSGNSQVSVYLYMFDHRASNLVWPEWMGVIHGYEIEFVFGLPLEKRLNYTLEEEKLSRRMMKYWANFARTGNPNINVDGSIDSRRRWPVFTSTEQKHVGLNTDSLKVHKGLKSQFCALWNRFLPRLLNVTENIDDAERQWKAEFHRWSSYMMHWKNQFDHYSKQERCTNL

For the compound `O=C1CCCC1C(O)c1cccc([N+](=O)[O-])c1` (stereo not shown) [3NCP, 2-(hydroxy-(3-nitrophenyl)methyl)cyclopentanone], the pIC50 was 4.16.
